Measurements from patent publication US10934298B2, “Substituted pyrazolo[1,5-a]pyrimidines for the treatment of medical disorders” (BIAL—BioTech Investments, Inc., priority 2016, dated 2021).

Molecular target: T1, glucocerebrosidase (Gcase) (Homo sapiens, UniProt P04062)
T1 construct: micellar solution containing 10 nM GCase and 100 nM saposin C
T1 sequence (P04062 40-536): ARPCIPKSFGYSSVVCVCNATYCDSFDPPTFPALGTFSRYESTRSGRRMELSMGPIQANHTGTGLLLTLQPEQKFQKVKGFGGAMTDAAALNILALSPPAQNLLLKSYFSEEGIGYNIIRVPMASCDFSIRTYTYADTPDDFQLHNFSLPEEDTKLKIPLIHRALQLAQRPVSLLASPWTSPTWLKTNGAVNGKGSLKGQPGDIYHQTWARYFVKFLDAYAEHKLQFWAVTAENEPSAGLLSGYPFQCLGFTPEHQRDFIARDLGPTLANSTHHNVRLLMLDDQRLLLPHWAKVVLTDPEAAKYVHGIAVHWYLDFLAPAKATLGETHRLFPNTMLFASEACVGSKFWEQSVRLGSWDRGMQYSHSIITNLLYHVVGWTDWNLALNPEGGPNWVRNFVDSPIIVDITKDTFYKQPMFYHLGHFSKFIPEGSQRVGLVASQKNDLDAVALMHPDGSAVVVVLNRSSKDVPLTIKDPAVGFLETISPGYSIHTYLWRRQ
Assay: Glucocerebrosidase (Gcase) activation assay with 4-methylumbelliferyl-beta-D-glucopyranoside substrate, saposin C and phosphatidylserine/triton micelles, fluorescence readout
Type: biochemical
Protocol: The ability of exemplary compounds to activate glucocerebrosidase (Gcase) was measured.
A 484 μL aliquot of a 1.0 mg/mL solution of phosphatidylserine (PS) (Sigma P7769) in chloroform was evaporated under a stream of nitrogen for 1 hour. The lipid film was dissolved over 4 minutes of vigorous vortexing in 40 mL of 176 mM K2HPO4/50 mM citric acid (pH 4.7) containing 7.5 μL of triton X-100, resulting in a mixed micellar preparation with a composition of 0.32 mM triton and 0.37 mol % PS. 4-Methylumbelliferyl-beta-D-glucopyranoside (ACROS-337025000) was dissolved in the micellar solution to a final concentration of 2 mM for use as the reaction substrate.
Test compounds were diluted to the desired concentrations with dimethylsulfoxide (DMSO) from 10 mM stocks, and 0.41 μL of the DMSO compound mixture was added to 100 μL of micellar solution containing 10 nM GCase and 100 nM saposin C (Enzo ALX-201-262-C050). Pre-incubation was allowed to occur for 30 minutes at room temperature, after which the reaction was initiated by combining 25 μL of substrate solution with 25 μL of compound/GCase/saposin mixture. The reaction proceeded for 15 minutes at room temperature and was stopped by adding 150 μL of 1M glycine, pH 12.5. The endpoint of the reaction was monitored by measuring fluorescence intensity (excitation: 365 nm; emission: 440 nm) on a SpectraMax i3 instrument (Molecular Devices). Test compounds were screened at 1.0 and 0.1 μM final concentration, and subsequent 8-point dose response curves were obtained using 3-fold dilutions from a maximum final concentration of 5 μM.

Row | SMILES | Percent Gcase Activation, 0.1 μM Test Compound (0.1 μM test compound, Table 3A) | Percent Gcase Activation, 1 μM Test Compound (1 μM test compound, Table 3A) | Percent Gcase Activation, 0.1 μM Test Compound (test compound at 0.1 μM) | Percent Gcase Activation, 1 μM Test Compound (test compound at 1.0 μM)
1 | CCOc1cccc(-c2cc(C)n3ncc(C(=O)NC(C)C(F)(F)F)c3n2)c1 (centres unmarked) [III-76] | *** (greater than 20% Gcase activation) | +++ (Gcase activation greater than 60%) | – | –
2 | Cc1cc(-c2cccc(OC3CC3)c2)nc2c(C(=O)NC(C)C(F)(F)F)cnn12 (centres unmarked) [III-77] | *** (greater than 20% Gcase activation) | +++ (Gcase activation greater than 60%) | – | –
3 | Cc1cc(NC2CC2)nc2c(C(=O)NC(C3CC3)C3CC3)cnn12 [III-78] | *** (greater than 20% Gcase activation) | +++ (Gcase activation greater than 60%) | – | –
4 | COCc1cc(-c2cccc(OC)c2)nc2c(C(=O)NC(C)(C)C3CC3)cnn12 [III-79] | *** (greater than 20% Gcase activation) | +++ (Gcase activation greater than 60%) | – | –
5 | Cc1cc(-c2cccc(F)c2)nc2c(C(=O)NC(C)(C)C(F)(F)F)cnn12 [III-80] | ** (Gcase activation in the range of 10% up to 20%) | +++ (Gcase activation greater than 60%) | – | –
6 | C#CC(C)(C)NC(=O)c1cnn2c(C)cc(-c3cccc(Cl)c3)nc12 [III-81] | *** (greater than 20% Gcase activation) | +++ (Gcase activation greater than 60%) | – | –
7 | C#CC(C)(C)NC(=O)c1cnn2c(C)cc(-c3cccc(OC4CC4)c3)nc12 [III-82] | *** (greater than 20% Gcase activation) | +++ (Gcase activation greater than 60%) | – | –
8 | Cc1cc(-c2ccc3ocnc3c2)nc2c(C(=O)NC(C3CC3)C(F)(F)F)cnn12 (centres unmarked) [III-83] | *** (greater than 20% Gcase activation) | +++ (Gcase activation greater than 60%) | – | –
9 | Cc1cc(-c2ccc(F)nc2)nc2c(C(=O)NC(C3CC3)C(F)(F)F)cnn12 (centres unmarked) [III-84] | *** (greater than 20% Gcase activation) | +++ (Gcase activation greater than 60%) | – | –
10 | Cc1cc(-c2cccnc2F)nc2c(C(=O)NC(C3CC3)C(F)(F)F)cnn12 (centres unmarked) [III-85] | *** (greater than 20% Gcase activation) | +++ (Gcase activation greater than 60%) | – | –
11 | Cc1cc(-c2ccc(F)cc2)nc2c(C(=O)N[C@H](C)C3CC3)cnn12 [III-86] | – | – | ** (Gcase activation in the range of 10% up to 20%) | +++ (Gcase activation greater than 60%)
12 | Cc1cc(-c2cccnc2)nc2c(C(=O)N[C@H](C)C3CC3)cnn12 [III-87] | – | – | * (less than 10% Gcase activation) | + (less than 30% Gcase activation)
13 | Cc1cc(-c2cccnc2)nc2c(C(=O)N[C@H](C3CC3)C(F)(F)F)cnn12 [III-88] | – | – | *** (greater than 20% Gcase activation) | +++ (Gcase activation greater than 60%)
14 | Cc1cc(-c2cccnc2)nc2c(C(=O)N[C@@H](C3CC3)C(F)(F)F)cnn12 [III-89] | – | – | ** (Gcase activation in the range of 10% up to 20%) | +++ (Gcase activation greater than 60%)
15 | COc1cccc(-c2cc(C)n3ncc(C(=O)N[C@H](C)C(F)(F)F)c3n2)c1 [III-90] | – | – | *** (greater than 20% Gcase activation) | +++ (Gcase activation greater than 60%)
16 | COc1cccc(-c2cc(C)n3ncc(C(=O)N[C@@H](C)C(F)(F)F)c3n2)c1 [III-91] | – | – | *** (greater than 20% Gcase activation) | +++ (Gcase activation greater than 60%)
17 | Cc1cc(-c2cccc(F)c2)nc2c(C(=O)N[C@H](C)C3CC3)cnn12 [III-92] | – | – | *** (greater than 20% Gcase activation) | +++ (Gcase activation greater than 60%)

Row | SMILES | Percent Gcase Activation, 0.1 μM Test Compound (0.1 μM test compound, Table 3A) | Percent Gcase Activation, 1 μM Test Compound (1 μM test compound, Table 3A) | Percent Gcase Activation, 0.1 μM Test Compound (test compound at 0.1 μM) | Percent Gcase Activation, 1 μM Test Compound (test compound at 1.0 μM)
18 | Cc1cc(-c2cccc(C#N)c2)nc2c(C(=O)N[C@H](C)C3CC3)cnn12 [III-93] | – | – | ** (Gcase activation in the range of 10% up to 20%) | +++ (Gcase activation greater than 60%)
19 | Cc1cc(N2CCCC(F)(F)C2)nc2c(C(=O)N[C@H](C3CC3)C(F)(F)F)cnn12 [III-94] | – | – | *** (greater than 20% Gcase activation) | +++ (Gcase activation greater than 60%)
20 | Cc1cc(N2CCCC(F)(F)C2)nc2c(C(=O)N[C@@H](C3CC3)C(F)(F)F)cnn12 [III-95] | – | – | *** (greater than 20% Gcase activation) | +++ (Gcase activation greater than 60%)
21 | C#CC(NC(=O)c1cnn2c(C)cc(-c3cccc(OC)c3)nc12)C(F)(F)F (centres unmarked) [III-96] | – | – | *** (greater than 20% Gcase activation) | +++ (Gcase activation greater than 60%)
22 | COc1ccc(F)c(-c2cc(C)n3ncc(C(=O)N[C@H](C)C(F)(F)F)c3n2)c1 [III-97] | – | – | ** (Gcase activation in the range of 10% up to 20%) | +++ (Gcase activation greater than 60%)
23 | COc1ccc(F)c(-c2cc(C)n3ncc(C(=O)N[C@@H](C)C(F)(F)F)c3n2)c1 [III-98] | – | – | *** (greater than 20% Gcase activation) | +++ (Gcase activation greater than 60%)
24 | C#CC(NC(=O)c1cnn2c(C)cc(-c3cccc(Cl)c3)nc12)C(F)(F)F (centres unmarked) [III-99] | – | – | *** (greater than 20% Gcase activation) | ++ (Gcase activation in the range of 30% up to 60%)
25 | Cc1cc(-c2ccns2)nc2c(C(=O)N[C@H](C3CC3)C(F)(F)F)cnn12 [III-100] | – | – | *** (greater than 20% Gcase activation) | +++ (Gcase activation greater than 60%)
26 | Cc1cc(-c2ccns2)nc2c(C(=O)N[C@@H](C3CC3)C(F)(F)F)cnn12 [III-101] | – | – | *** (greater than 20% Gcase activation) | +++ (Gcase activation greater than 60%)
27 | Cc1cc(-c2cccc(-c3ncc[nH]3)c2)nc2c(C(=O)NC(C3CC3)C(F)(F)F)cnn12 (centres unmarked) [III-102] | – | – | * (less than 10% Gcase activation) | + (less than 30% Gcase activation)
28 | Cc1cc(-c2cccc(Oc3ncccn3)c2)nc2c(C(=O)NC(C3CC3)C(F)(F)F)cnn12 (centres unmarked) [III-103] | – | – | * (less than 10% Gcase activation) | +++ (Gcase activation greater than 60%)
29 | Cc1cc(-c2cccc3ncoc23)nc2c(C(=O)NC(C3CC3)C(F)(F)F)cnn12 (centres unmarked) [III-104] | – | – | *** (greater than 20% Gcase activation) | +++ (Gcase activation greater than 60%)
30 | Cc1cc(-c2cccc3ocnc23)nc2c(C(=O)NC(C3CC3)C(F)(F)F)cnn12 (centres unmarked) [III-106] | – | – | *** (greater than 20% Gcase activation) | ++ (Gcase activation in the range of 30% up to 60%)
31 | Cc1cc(-n2ccc(Cl)n2)nc2c(C(=O)NC(C3CC3)C(F)(F)F)cnn12 (centres unmarked) [III-107] | – | – | *** (greater than 20% Gcase activation) | +++ (Gcase activation greater than 60%)
32 | Cc1cc(-c2ccc3ocnc3c2)nc2c(C(=O)NC(C3CC3)C(F)(F)F)cnn12 (centres unmarked) [III-108] | – | – | *** (greater than 20% Gcase activation) | +++ (Gcase activation greater than 60%)
33 | Cc1cc(-c2ccc3ocnc3c2)nc2c(C(=O)N[C@H](C3CC3)C(F)(F)F)cnn12 [III-109] | – | – | *** (greater than 20% Gcase activation) | +++ (Gcase activation greater than 60%)
34 | Cc1cc(-c2ccc3ocnc3c2)nc2c(C(=O)N[C@@H](C3CC3)C(F)(F)F)cnn12 [III-110] | – | – | *** (greater than 20% Gcase activation) | +++ (Gcase activation greater than 60%)
